Results published in ChEMBL document CHEMBL4402545, “Subtype Selective γ-Aminobutyric Acid Type A Receptor (GABAAR) Modulators Acting at the Benzodiazepine Binding Site: An Update” (J Med Chem, 2020).

Columns and labels:
[1] = target: T1, Gamma-aminobutyric acid receptor subunit alpha-2 (Homo sapiens, UniProt P47869); assay: Binding affinity to GABA-A alpha2 (unknown origin)
T1 sequence (P47869 whole entry): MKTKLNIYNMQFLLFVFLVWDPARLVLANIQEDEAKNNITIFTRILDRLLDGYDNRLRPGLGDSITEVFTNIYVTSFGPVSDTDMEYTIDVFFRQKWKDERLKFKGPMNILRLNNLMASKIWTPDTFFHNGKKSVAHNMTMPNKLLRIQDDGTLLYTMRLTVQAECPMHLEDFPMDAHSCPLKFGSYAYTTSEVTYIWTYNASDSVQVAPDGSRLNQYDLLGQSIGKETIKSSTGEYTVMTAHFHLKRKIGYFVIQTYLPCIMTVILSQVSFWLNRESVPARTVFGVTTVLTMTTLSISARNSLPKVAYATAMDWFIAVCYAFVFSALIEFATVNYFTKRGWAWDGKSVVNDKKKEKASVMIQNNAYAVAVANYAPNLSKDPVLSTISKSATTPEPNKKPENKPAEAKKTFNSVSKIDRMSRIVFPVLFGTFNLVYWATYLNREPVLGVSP

[2] = target: T2, Gamma-aminobutyric acid receptor subunit alpha-1 (Homo sapiens, UniProt P14867); assay: Binding affinity to GABA-A alpha1 (unknown origin)
T2 sequence (P14867 whole entry): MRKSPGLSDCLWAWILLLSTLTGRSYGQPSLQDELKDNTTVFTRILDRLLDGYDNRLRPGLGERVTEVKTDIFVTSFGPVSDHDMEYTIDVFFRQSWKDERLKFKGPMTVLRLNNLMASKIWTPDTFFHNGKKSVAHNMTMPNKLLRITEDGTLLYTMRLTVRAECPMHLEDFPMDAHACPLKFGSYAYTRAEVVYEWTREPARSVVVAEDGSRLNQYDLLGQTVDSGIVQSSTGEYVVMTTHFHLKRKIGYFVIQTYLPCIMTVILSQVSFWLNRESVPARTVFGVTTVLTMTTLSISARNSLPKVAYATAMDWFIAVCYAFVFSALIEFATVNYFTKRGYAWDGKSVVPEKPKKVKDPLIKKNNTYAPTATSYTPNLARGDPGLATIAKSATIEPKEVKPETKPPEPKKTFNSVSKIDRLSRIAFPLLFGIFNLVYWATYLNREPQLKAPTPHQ

[3] = target: T3, Gamma-aminobutyric acid receptor subunit alpha-3 (Homo sapiens, UniProt P34903); assay: Binding affinity to GABA-A alpha3 (unknown origin)
T3 sequence (P34903 whole entry): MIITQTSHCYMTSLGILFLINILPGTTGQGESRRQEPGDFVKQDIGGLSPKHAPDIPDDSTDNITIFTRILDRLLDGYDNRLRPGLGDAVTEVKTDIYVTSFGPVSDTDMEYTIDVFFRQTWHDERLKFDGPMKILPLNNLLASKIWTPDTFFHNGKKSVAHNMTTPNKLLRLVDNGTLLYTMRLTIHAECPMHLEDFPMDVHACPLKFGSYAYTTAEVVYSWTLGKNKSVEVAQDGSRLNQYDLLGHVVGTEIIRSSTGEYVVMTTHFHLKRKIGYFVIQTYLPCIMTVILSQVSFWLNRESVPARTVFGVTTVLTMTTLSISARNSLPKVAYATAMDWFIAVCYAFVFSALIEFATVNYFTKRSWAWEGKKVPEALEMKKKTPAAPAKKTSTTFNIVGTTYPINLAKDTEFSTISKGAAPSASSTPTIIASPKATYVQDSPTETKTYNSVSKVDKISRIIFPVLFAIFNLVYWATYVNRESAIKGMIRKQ

Homo sapiens [4] = species on record: Homo sapiens; assay: Selectivity ratio of Ki for binding affinity to GABAA alpha1beta3gamma2 (unknown origin) to Ki for binding affinity to GABAA alpha5beta3gamma2 (unknown origin)
Homo sapiens [5] = species on record: Homo sapiens; assay: Selectivity ratio of Ki for binding affinity to GABAA alpha2beta3gamma2 (unknown origin) to Ki for binding affinity to GABAA alpha5beta3gamma2 (unknown origin)
Homo sapiens [6] = species on record: Homo sapiens; assay: Selectivity ratio of Ki for binding affinity to GABAA alpha3beta3gamma2 (unknown origin) to Ki for binding affinity to GABAA alpha5beta3gamma2 (unknown origin)
[7] = target: T4, Gamma-aminobutyric acid receptor subunit alpha-5 (Homo sapiens, UniProt P31644); assay: Binding affinity to GABA-A alpha5 (unknown origin)
T4 sequence (P31644 whole entry): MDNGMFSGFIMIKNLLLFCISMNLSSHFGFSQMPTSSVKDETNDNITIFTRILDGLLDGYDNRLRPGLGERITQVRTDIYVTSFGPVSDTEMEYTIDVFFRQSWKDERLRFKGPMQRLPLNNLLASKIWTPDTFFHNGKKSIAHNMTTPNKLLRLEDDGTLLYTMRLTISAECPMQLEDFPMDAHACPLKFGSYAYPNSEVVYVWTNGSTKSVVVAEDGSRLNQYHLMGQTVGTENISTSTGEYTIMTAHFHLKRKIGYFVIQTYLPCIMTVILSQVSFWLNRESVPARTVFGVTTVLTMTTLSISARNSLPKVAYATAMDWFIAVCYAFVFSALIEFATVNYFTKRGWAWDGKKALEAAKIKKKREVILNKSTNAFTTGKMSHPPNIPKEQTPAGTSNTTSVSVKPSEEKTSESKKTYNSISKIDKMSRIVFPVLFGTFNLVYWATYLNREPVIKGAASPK

[8] = target: T5, Gamma-aminobutyric acid receptor subunit alpha-1 (Homo sapiens) (UniProt P14867); assay: Binding affinity to GABA-A alpha1 (unknown origin) assessed as increase in induced current relative to control
T5 sequence (whole entry): T2 sequence (P14867 whole entry)

[9] = target: T6, Gamma-aminobutyric acid receptor subunit alpha-2 (Homo sapiens) (UniProt P47869); assay: Binding affinity to GABA-A alpha2 (unknown origin) assessed as increase in induced current relative to control
T6 sequence (whole entry): T1 sequence (P47869 whole entry)

[10] = target: T7, Gamma-aminobutyric acid receptor subunit alpha-3 (Homo sapiens) (UniProt P34903); assay: Binding affinity to GABA-A alpha3 (unknown origin) assessed as increase in induced current relative to control
T7 sequence (whole entry): T3 sequence (P34903 whole entry)

[11] = target: T8, Gamma-aminobutyric acid receptor subunit alpha-5 (Homo sapiens) (UniProt P31644); assay: Binding affinity to GABA-A alpha5 (unknown origin) assessed as increase in induced current relative to control
T8 sequence (whole entry): T4 sequence (P31644 whole entry)

[12] = target: T5, Gamma-aminobutyric acid receptor subunit alpha-1 (Homo sapiens); assay: Negative allosteric modulation of GABA-A alpha1 (unknown origin) assessed as reduction in DMCM induced current relative to control
[13] = target: T6, Gamma-aminobutyric acid receptor subunit alpha-2 (Homo sapiens); assay: Binding affinity to GABA-A alpha2 (unknown origin) assessed as reduction in DMCM induced current relative to control
[14] = target: T7, Gamma-aminobutyric acid receptor subunit alpha-3 (Homo sapiens); assay: Binding affinity to GABA-A alpha3 (unknown origin) assessed as reduction in DMCM induced current relative to control
[15] = target: T8, Gamma-aminobutyric acid receptor subunit alpha-5 (Homo sapiens); assay: Binding affinity to GABA-A alpha5 (unknown origin) assessed as reduction in DMCM induced current relative to control
[16] = target: GABA-A receptor; alpha-5/beta-3/gamma-2 (Homo sapiens) (UniProt P18507+P28472+P31644); assay: Negative allosteric modulation of GABAA alpha5beta3gamma2 (unknown origin) expressed in Xenopus laevis oocytes assessed as inhibition of GABA-induced current response at -60 mV holding potential by two electrode voltage clamp method relative to control; format: cell-based; design: scale not given: the % may be the effect or the level left

| Structure (SMILES) | Ki [1] | Ki [2] | Ki [3] | Ki [7] | fold change (FC) [8] | fold change (FC) [9] | fold change (FC) [10] | fold change (FC) [11] | other results |
| --- | --- | --- | --- | --- | --- | --- | --- | --- | --- |
| CCOC(=O)c1ncn2c1[C@@H]1CCCN1C(=O)c1cc(OC)ccc1-2 | 17 to 360 nM | 17 to 360 nM | 17 to 360 nM |  |  |  |  |  | Ratio Ki (Homo sapiens [4]): 50 to 100; Ratio Ki (Homo sapiens [5]): 50 to 100; Ratio Ki (Homo sapiens [6]): 50 to 100 |
| C#Cc1ccc2c(c1)C(c1ccccc1F)=N[C@H](C)c1c(C(=O)NC)ncn1-2 | 360 nM | 850 nM | 660 nM | 55 nM | 0.11 | 0.5 | 0.2 | 2.48 |  |
| CC(C)(O)c1ccc2c(c1)ncn2-c1cccc(-c2cc(C#N)ccc2Cl)n1 |  |  |  |  | -0.1 | 0.27 | 0.47 | 0.05 |  |
| FC(F)c1ncn2c1Cn1ncnc1-c1cc(Br)ccc1-2 | 185 nM | 174 nM | 80 nM | 4.6 nM |  |  |  |  | Efficacy [12]: -3%; Efficacy [13]: -4%; Efficacy [14]: 2%; Efficacy [15]: -35% |
| Clc1ccc2c(c1)-c1ncnn1Cc1c(Cl)ncn1-2 | 24 nM | 15 nM | 14 nM | 2 nM |  |  |  |  | Efficacy [12]: -3%; Efficacy [13]: -9%; Efficacy [14]: -11%; Efficacy [15]: -40% |
| CCCNC(=O)c1nnc2c(-c3cc(OC)ccc3OC)cccc2c1N [AZD6280] |  | 0.5 nM | 3.1 nM | 1680 nM |  |  |  |  |  |
| c1ccc(-c2nnc3c4c(c(OCc5ccccn5)nn23)C2CCC4CC2)cc1 | 26 nM | 71 nM | 12 nM |  |  |  |  |  |  |
| C#Cc1ccc2c(c1)C(c1ccccc1F)=N[C@@H](C)c1c(C(=O)OCC)ncn1-2 |  |  |  |  | 0.3 | 0.57 | 0.31 | 1.19 |  |
| Cc1onc(-c2ccc(F)cc2)c1COc1ccc(C(=O)N2CCS(=O)(=O)CC2)cn1 [BASMISANIL] | 502 nM | 985 nM | 489 nM | 4.7 nM |  |  |  |  | Efficacy [12]: -4%; Efficacy [13]: -6%; Efficacy [14]: -2%; Efficacy [15]: -39% |
| COCc1ncn2c1CN(C)C(=O)c1cc(Cl)ccc1-2 | 180 nM | 362 nM | 328 nM | 6 nM |  |  |  |  | Efficacy [12]: 20%; Efficacy [13]: 15%; Efficacy [14]: 45%; Efficacy [15]: -20%; Ratio Ki (Homo sapiens [4]): 30 to 60; Ratio Ki (Homo sapiens [5]): 30 to 60; Ratio Ki (Homo sapiens [6]): 30 to 60; Activity [16]: 17% |
| C#Cc1ccc2c(c1)C(c1ccccn1)=NCc1c(-c3cnco3)ncn1-2 |  |  |  |  | 0.35 | 0.66 | 0.77 |  |  |
| C#Cc1ccc2c(c1)C(c1ccccn1)=NCc1c(C(=O)OC)ncn1-2 | 1000 nM |  | 1000 nM |  |  |  |  |  | Activity [8]: 25%; Activity [9]: 140%; Activity [10]: 129%; Activity [11]: 11% |
| C#Cc1ccc2c(c1)C(c1ccccc1F)=N[C@H](C)c1c(C(=O)OCC)ncn1-2 |  |  |  |  | 0.25 | 0.19 | 0.18 | 1.19 |  |
| C#Cc1ccc2c(c1)C(c1ccccc1F)=N[C@H](C)c1c(C(=O)NC3CC3)ncn1-2 | 789 nM | 542 nM | 480 nM | 79 nM | 1.22 |  |  | 1.23 | Ratio Ki (Homo sapiens [4]): 6 to 15; Ratio Ki (Homo sapiens [5]): 6 to 15; Ratio Ki (Homo sapiens [6]): 6 to 15 |
| C#Cc1ccc2c(c1)C(c1ccccn1)=NCc1c(C(=O)OCC)ncn1-2 |  |  |  |  | 0.27 | 0.52 | 0.36 | 0.23 |  |
| C#Cc1ccc2c(c1)C(c1ccccc1F)=N[C@H](C)c1c(C(=O)N(C)C)ncn1-2 | 30000 nM | 55000 nM | 63000 nM | 5000 nM | 0.65 |  |  | 1.46 | Ratio Ki (Homo sapiens [4]): 6 to 15; Ratio Ki (Homo sapiens [5]): 6 to 15; Ratio Ki (Homo sapiens [6]): 6 to 15 |
| C#Cc1ccc2c(c1)C(=O)N(C)Cc1c(C(=O)OCC)ncn1-2 |  |  |  |  |  |  |  |  | Activity [16]: 36% |
